Read-outs that look alike come from different tables or passages of the source.
Experiments:
[1] = target: human carboxylesterase 1 (hCE1) (Homo sapiens, UniProt P23141); conditions: in vivo, J Pharmacol Exp Ther, 2006, 319: 1467; cited from earlier work
[2] = test system: platelet aggregation; experiment: animal or person; format: in vivo; conditions: Rattus norvegicus, read-out: Aggregation inhibition (%)
Description: The positive control and the test compounds (prepared in the above examples) were formulated in 0.5% CMC-Na (carboxymethylcellulose sodium) into suspensions for administration to animals.
Animals: male SD rats, weighed about 250 g, and supplied by Shanghai Super-B&K Laboratory Animal Corp. Ltd. Animal certificate No.: 2008001605451, and license No.: SCXK (Hu); SCXK (Hu) 2008-0016.
Instruments: a centrifuge (80-2 bench top low-speed centrifuge), an automatic platelet aggregation tester (STELLEXLG-PAPER-I platelet coagulation/aggregation analyzer), and others.
Methods: the pharmacological activity test of the compounds of the present invention for platelet aggregation was performed following Born's turbidimetric method (Nature, 1962, 194(4832): 927). An agglomeration-promoting substance, adenosine diphosphate (ADP), was added to a platelet rich plasma (PRP), and stirred to allow platelets to aggregate. […] This experiment can be used to evaluate the platelet aggregation effect induced by the test compounds administrated in-vivo or in-vitro.
The PRP was adjusted with a platelet poor plasma (PPP) to maintain the platelet counts at […]. The PRP was taken into a test cup, and incubated at 37° C. for 10 min. Light transmission was adjusted to 0% with PRP and to 100% with PPP for each measurement. By using ADP (with a final concentration of 5 μM) as an inducer, the platelet aggregation percentages were measured through the turbidimetric method using a platelet aggregation tester, and statistically compared by t-test. The platelet aggregation inhibition was calculated by the equation: platelet aggregation inhibition (%)=[1−(aggregation percent in dosed tube/aggregation percent in control tube)]×100%.

[3] = male SD rats, oral gavage 3 mg/kg, blood after 2 hrs, ADP 5 μM

human carboxylesterase 1 (hCE1), sequence (P23141 18-567): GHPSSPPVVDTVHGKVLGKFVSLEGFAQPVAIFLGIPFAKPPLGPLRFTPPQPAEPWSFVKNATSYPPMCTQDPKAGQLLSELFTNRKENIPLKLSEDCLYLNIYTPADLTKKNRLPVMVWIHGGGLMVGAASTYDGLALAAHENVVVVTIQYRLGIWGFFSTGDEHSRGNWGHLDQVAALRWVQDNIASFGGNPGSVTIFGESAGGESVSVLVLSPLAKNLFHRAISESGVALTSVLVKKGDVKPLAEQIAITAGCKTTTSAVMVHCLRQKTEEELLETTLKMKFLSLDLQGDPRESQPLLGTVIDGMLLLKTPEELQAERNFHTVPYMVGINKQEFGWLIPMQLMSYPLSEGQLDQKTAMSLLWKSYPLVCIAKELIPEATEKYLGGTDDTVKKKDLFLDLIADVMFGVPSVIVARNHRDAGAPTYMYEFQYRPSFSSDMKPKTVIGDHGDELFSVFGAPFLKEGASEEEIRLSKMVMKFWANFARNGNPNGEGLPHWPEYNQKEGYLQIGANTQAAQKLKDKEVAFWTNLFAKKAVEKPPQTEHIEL

Structure (SMILES): COC(=O)[C@H](c1ccccc1Cl)N1CCc2sccc2C1 [clopidogrel]
- share of the prototype drug hydrolyzed by hCE1 in the liver into an inactive carboxylic derivative [1]: 85%

Structure (SMILES): COC(=O)[C@H](c1ccccc1Cl)N1CCc2sc(OC(=O)COc3ccccc3)cc2C1 [Compound I-13, (S)-Methyl 2-(2-(phenoxyacetoxy)-6,7-dihydrothieno[3,2-c]pyridin-5(4H)-yl)-2-(2-chlorophenyl)-acetate]
- inhibition at 3 mg/kg [2, 3]: 10.1%
- melting point: 104 to 106 °C

Structure (SMILES): COC(=O)[C@H](c1ccccc1Cl)N1CCc2sc(OC(=O)c3ccccc3)cc2C1 [Compound I-1, (S)-Methyl 2-(2-benzoyloxy-6,7-dihydrothieno[3,2-c]pyridin-5(4H)-yl)-2-(2-chlorophenyl)-acetate]
- inhibition at 3 mg/kg [2, 3]: 41.1%
- melting point: 84 to 86 °C

Structure (SMILES): COC(=O)[C@H](c1ccccc1Cl)N1CCc2sc(OC(=O)c3ccc([N+](=O)[O-])cc3)cc2C1 [Compound I-10, (S)-methyl 2-(2-(4-nitrobenzoyloxy)-6,7-dihydrothieno[3,2-c]pyridin-5(4H)-yl)-2-(2-chlorophenyl)-acetate]
- inhibition at 3 mg/kg [2, 3]: 36.8%
- melting point: 100 to 102 °C

Structure (SMILES): COC(=O)[C@H](c1ccccc1Cl)N1CCc2sc(OC(=O)N(C)C)cc2C1 [Compound I-18, (S)-Methyl 2-(2-(N,N-dimethylcarbamoyloxy)-6,7-dihydrothieno[3,2-c]pyridin-5(4H)-yl)-2-(2-chlorophenyl)-acetate]
- inhibition at 3 mg/kg ([2]; po, 2 h): 48.2%
- melting point: 96 to 98 °C

Structure (SMILES): COC(=O)[C@H](c1ccccc1Cl)N1CCc2sc(OC(=O)/C=C/c3ccccc3)cc2C1 [Compound I-9, (S)-methyl 2-(2-cinnamoyloxy-6,7-dihydrothieno[3,2-c]pyridin-5(4H)-yl)-2-(2-chlorophenyl)-acetate]
- inhibition at 3 mg/kg [2, 3]: 30.3%
- melting point: 122 to 124 °C

Structure (SMILES): CCC(C)(C)C(=O)Oc1cc2c(s1)CCN([C@H](C(=O)OC)c1ccccc1Cl)C2 [Compound I-8, (S)-Methyl 2-(2-(2,2-dimethylbutanoyloxy)-6,7-dihydrothieno[3,2-c]pyridin-5(4H)-yl)-2-(2-chlorophenyl)-acetate]
- inhibition at 3 mg/kg [2, 3]: 35.7%
- melting point: 98 to 100 °C

Structure (SMILES): COC(=O)C(c1ccccc1Cl)N1CCc2sc(OC(=O)N(C)C)cc2C1 (racemic) [I-18′, (R,S)-Methyl 2-(2-(N,N-dimethylcarbamoyloxy)-6,7-dihydrothieno[3,2-c]pyridin-5(4H)-yl)-2-(2-chlorophenyl)-acetate]
- inhibition at 3 mg/kg ([2]; po, 2 h): 29.8%

Structure (SMILES): COC(=O)[C@H](c1ccccc1Cl)N1CCc2sc(OC(=O)C(C)(C)C)cc2C1 [Compound I-7, (S)-methyl 2-(2-pivaloyloxy-6,7-dihydrothieno[3,2-c]pyridin-5(4H)-yl)-2-(2-chlorophenyl)-acetate]
- inhibition at 3 mg/kg [2, 3]: 41.9%

Structure (SMILES): COC(=O)[C@H](c1ccccc1F)N1CCc2sc(OC(C)=O)cc2C1 [Compound I-19, (S)-Methyl 2-(2-acetoxy-6,7-dihydrothieno[3,2-c]pyridin-5 (4H)-yl)-2-(2-fluorophenyl)-acetate]
- inhibition at 3 mg/kg [2, 3]: 63.5%

Structure (SMILES): CCCC(=O)Oc1cc2c(s1)CCN([C@H](C(=O)OC)c1ccccc1Cl)C2 [Compound I-4, (S)-methyl 2-(2-butanoyloxy-6,7-dihydrothieno[3,2-c]pyridin-5 (4H)-yl)-2-(2-chlorophenyl)-acetate]
- inhibition at 3 mg/kg [2, 3]: 46.2%

Structure (SMILES): COC(=O)[C@H](c1ccccc1Cl)N1CCc2sc(OC(=O)c3cccnc3)cc2C1 [Compound I-6, (S)-methyl 2-(2-nicotinoyloxy-6,7-dihydrothieno[3,2-c]pyridin-5(4H)-yl)-2-(2-chlorophenyl)-acetate]
- inhibition at 3 mg/kg [2, 3]: 31.3%
- melting point: 92 to 94 °C

Structure (SMILES): COC(=O)[C@H](c1ccccc1Cl)N1CCc2sc(OC(=O)OC(C)C)cc2C1 [Compound I-16, (S)-Methyl 2-(2-(isopropoxycarbonyloxy)-6,7-dihydrothieno[3,2-c]pyridin-5(4H)-yl)-2-(2-chlorophenyl)-acetate]
- inhibition at 3 mg/kg [2, 3]: 52.7%

Structure (SMILES): CCOC(=O)Oc1cc2c(s1)CCN([C@H](C(=O)OC)c1ccccc1Cl)C2 [Compound I-14, (S)-Methyl 2-(2-(ethoxycarbonyloxy)-6,7-dihydrothieno[3,2-c]pyridin-5(4H)-yl)-2-(2-chlorophenyl)-acetate]
- inhibition at 3 mg/kg [2, 3]: 62.9%
- melting point: 42 to 44 °C
